Measured values as given in patent US20220395472A1 (Dermavant Sciences GmbH, priority 2021, published 2022).

Test system: adults with plaque psoriasis
Assay: Long-term open-label extension study (PSOARING 3): Physician Global Assessment (PGA), treatment episodes, treatment success, remittive effect
Format: in vivo, human
Method: This extension study consisted of up to 40 weeks of treatment and a 4 week, safety follow up period.
At the completion of the Week 12 visit of the DB, pivotal Phase 3 study, eligibility of the subjects opting to enroll in this extension study was confirmed. Study visits during the treatment period for all subjects occurred every 4 weeks (±3 days). A phone call was performed at Week 2 (Day 15). Unscheduled visits may have occurred, as needed. Subjects who withdrew from this study before Week 40 returned to the study center for an Early Termination visit. The total duration of this extension study participation was 44 weeks. Subjects in this study were treated as follows based on their PGA score from the Week 12 visit in the DB, pivotal Phase 3 study (Study DMVT 505 3001 or Study DMVT 505 3002).
The PGA was used to assess the primary efficacy endpoint in this study. The PGA is a clinical tool for assessing the current state/severity of a subject's psoriasis at a given time point. It is a static, 5 point, morphological assessment of overall disease severity, as determined by the Investigator, using the clinical characteristics of erythema, scaling, and plaque thickness/elevation as guidelines; higher PGA scores represent more severe disease (0=clear, 1=almost clear, 2=mild, 3=moderate, and 4=severe). The BSA affected was not considered in scoring of the PGA. Variations of the PGA are frequently used in clinical studies because it is a simple assessment, similar to those used in clinical practice. The PGA was performed first, prior to the % BSA, PASI, and LTS assessments.
Time to event parameters, such as the time from treatment success to subsequent worsening (PGA≥2) or duration of treatment episode, were summarized by the Kaplan Meier product limit method using OC.

[1] = Baseline PGA = 0, Tapinarof (Pivotal) group
[2] = Baseline PGA = 0, Vehicle (Pivotal) group

## CC(C)c1c(O)cc(/C=C/c2ccccc2)cc1O [Tapinarof, 3,5-Dihydroxy-4-isopropyl-trans-stilbene]
Baseline PGA = 0, Overall
  Average Duration of Episodes, Mean (SD): 91.4 (66.93) days
  Average Duration of Episodes, Median: 63.0 days
  Average Duration of Treatment Success, Mean (SD): 124.2 (87.66) days
  Average Duration of Treatment Success, Median: 98.0 days
  Duration of 1st Episode, Mean (SD): 92.9 (67.74) days
  Duration of 1st Episode, Median: 65.0 days
  Duration of 1st Success, Mean (SD): 125.1 (91.87) days
  Duration of 1st Success, Median: 112.0 days
  Duration of 2nd Episode, Mean (SD): 44.1 (25.97) days
  Duration of 2nd Episode, Median: 42.0 days
  Duration of 2nd Success, Mean (SD): 87.6 (67.05) days
  Duration of 2nd Success, Median: 71.0 days
  Duration of 3rd Episode, Mean (SD): 61.0 (NE) days
  Duration of 3rd Episode, Median: 61.0 days
  Duration of 3rd Success, Mean (SD): 33.0 (29.76) days
  Duration of 3rd Success, Median: 28.0 days
  Duration of Last Episode, Mean (SD): 89.9 (68.95) days
  Duration of Last Episode, Median: 63.0 days
  Duration of Last Success, Mean (SD): 121.6 (98.44) days
  Duration of Last Success, Median: 112.0 days
  Total Duration of Treatment Episodes, Mean (SD): 109.2 (61.94) days
  Total Duration of Treatment Episodes, Median: 94.0 days
  Total Duration of Treatment Success, Mean (SD): 167.9 (84.48) days
  Total Duration of Treatment Success, Median: 170.0 days
[1]
  Average Duration of Episodes, Mean (SD): 90.2 (65.67) days
  Average Duration of Episodes, Median: 63.0 days
  Average Duration of Treatment Success, Mean (SD): 119.7 (82.74) days
  Average Duration of Treatment Success, Median: 98.0 days
  Duration of 1st Episode, Mean (SD): 91.7 (66.66) days
  Duration of 1st Episode, Median: 65.0 days
  Duration of 1st Success, Mean (SD): 120.3 (87.83) days
  Duration of 1st Success, Median: 112.0 days
  Duration of 2nd Episode, Mean (SD): 44.9 (26.43) days
  Duration of 2nd Episode, Median: 43.0 days
  Duration of 2nd Success, Mean (SD): 89.1 (67.03) days
  Duration of 2nd Success, Median: 71.0 days
  Duration of 3rd Episode, Mean (SD): 61.0 (NE) days
  Duration of 3rd Episode, Median: 61.0 days
  Duration of 3rd Success, Mean (SD): 36.2 (29.31) days
  Duration of 3rd Success, Median: 28.5 days
  Duration of Last Episode, Mean (SD): 88.8 (67.68) days
  Duration of Last Episode, Median: 63.0 days
  Duration of Last Success, Mean (SD): 118.0 (93.58) days
  Duration of Last Success, Median: 112.0 days
  Total Duration of Treatment Episodes, Median: 94.0 days
  Total Duration of Treatment Success, Mean (SD): 164.3 (82.24) days
  Total Duration of Treatment Success, Median: 168.0 days
[2]
  Average Duration of Episodes, Mean (SD): 122.8 (124.80) days
  Average Duration of Episodes, Median: 122.8 days
  Average Duration of Treatment Success, Mean (SD): 191.0 (136.91) days
  Average Duration of Treatment Success, Median: 280.0 days
  Duration of 1st Episode, Mean (SD): 126.0 (120.21) days
  Duration of 1st Episode, Median: 126.0 days
  Duration of 1st Success, Mean (SD): 195.2 (130.61) days
  Duration of 1st Success, Median: 280.0 days
  Duration of 2nd Episode, Mean (SD): 28.0 (NE) days
  Duration of 2nd Episode, Median: 28.0 days
  Duration of 2nd Success, Mean (SD): 63.5 (88.39) days
  Duration of 2nd Success, Median: 63.5 days
  Duration of 3rd Success, Mean (SD): 1.0 (NE) days
  Duration of 3rd Success, Median: 1.0 days
  Duration of Last Episode, Mean (SD): 119.5 (129.40) days
  Duration of Last Episode, Median: 119.5 days
  Duration of Last Success, Mean (SD): 174.4 (158.72) days
  Duration of Last Success, Median: 280.0 days
  Total Duration of Treatment Episodes, Mean (SD): 140.0 (100.41) days
  Total Duration of Treatment Episodes, Median: 140.0 days
  Total Duration of Treatment Success, Mean (SD): 220.8 (109.21) days
  Total Duration of Treatment Success, Median: 280.0 days
Baseline PGA = 1, Overall
  Average Duration of Episodes, Mean (SD): 140.1 (95.01) days
  Average Duration of Episodes, Median: 112.0 days
  Average Duration of Treatment Success, Median: 98.0 days
  Duration of 1st Episode, Mean (SD): 133.5 (100.06) days
  Duration of 1st Episode, Median: 87.0 days
  Duration of 1st Success, Mean (SD): 107.2 (76.62) days
  Duration of 1st Success, Median: 90.0 days
  Duration of 2nd Episode, Mean (SD): 98.4 (61.51) days
  Duration of 2nd Episode, Median: 85.0 days
  Duration of 2nd Success, Mean (SD): 75.4 (59.40) days
  Duration of 2nd Success, Median: 56.0 days
  Duration of 3rd Episode, Mean (SD): 54.9 (56.83) days
  Duration of 3rd Episode, Median: 28.0 days
